Measurements reported in patent publication US20240051992A1, “THIOPHOSPHOPEPTIDES FOR ULTRAFAST TARGETING OF THE GOLGI APPARATUS” (BRANDEIS UNIVERSITY, priority 2021, published 2024).
“And” between values parts separate entries of the source, which are not always exact repeats. Equal entries are not always repeated. Where two headings read alike, the source gives them in different places.

What was measured:
[1] = Critical micelle concentration (CMC) determination by dynamic light scattering; type: physicochemical; settings: thiophosphopeptide in deionized water, pH 7.4, DLS
Description: Critical micelle concentration (CMC) determination: A series of solutions of compounds (pS1, pS2), from the concentration of 0.0625 μM to 400 μM, were prepared in deionized water and adjusted the pH to 7.4. The count rates of the solutions were measured and recorded by an ALV/DLS/SLS-5000 Light Scattering System, which were converted to the intensity of scattered light and then plotted against concentrations to determine the CMC values. Then, ALP (0.1 U/mL) was added to the series of solutions and after 24 h, the same procedures were proceeded to determine CMC values of dephosphorylated pS1 and pS2 (S1 and S2).

SJSA-1 cells = assay: CLSM rate of fluorescence increase at Golgi, SJSA-1; type: cell-based; settings: pS1 10 μM
Description: (§1) Cell Lines: All cell lines used (HeLa, Saos-2, SJSA-1, OVSAHO, HCC1937, HepG2, OVCAR-4, SKOV-3, MCF-7, HEK293, HS-5) were purchased from the American Type Culture Collection (ATCC, Manassas, VA, USA). HeLa, HepG2, MCF-7 and HEK293 cells were cultured in MEM medium with 10% FBS and 1% P/S (100 U mL^−1 penicillin and 100 μg mL^−1 streptomycin, Invitrogen Life Technologies). Saos-2, SKOV-3 cells were cultured in McCoy's 5A medium with 15% FBS and 1% P/S. HS-5 cells were cultured in DMEM medium with 10% FBS and 1% P/S. SJSA-1, OVSAHO, HCC1937, OVCAR-4 cells were cultured in RPMI-1640 medium with 10% FBS and 1% P/S. All the cells were cultured at 37° C. in a humidified atmosphere of 5% CO2. To determine the cytotoxicity of the compounds, cells were seeded in 96-well cell plate at 1.0×10^4 cells/well for 24 h followed by culture medium removal, and then fresh culture medium containing compounds were added. For fluorescence imaging, cells were seeded in confocal dish at 1.5×10^5 cells/dish for 24 h followed by the addition of fresh medium containing compounds, and then the fluorescence of cells were taken by ZEISS LSM 880 confocal laser scanning microscope with the 63× oil lens. […]

SKOV3 cells = assay: CLSM rate of fluorescence increase at Golgi, SKOV-3; type: cell-based; settings: pS1 10 μM
Description: as §1

OVSAHO cells = assay: CLSM rate of fluorescence increase at Golgi, OVSAHO; type: cell-based; settings: pS1 10 μM
Description: as §1

[2] = tested on: alkaline phosphatase (ALP)
Description: Determination of Dephosphorylation Rates in vitro: To determine the dephosphorylation rates of thiophosphopeptides in vitro, pS1, pO1, pS2, pO2 solutions (PBS, pH 7.4) were prepared at concentration of 120 μM and ALP was added into the solutions to make the final concentration of ALP to 0.1 U/mL at 37° C. At the designated time, the same volume of methanol was added to eliminate the activity of ALP. LC/MS was used analyse the results.

[3] = Transmission electron microscopy of pS1 with or without ALP; type: physicochemical; settings: 5 μM, without ALP
Description: Transmission Electron Microscopy Experiments: The 400 mesh copper grids coated with carbon film was glowing discharged and sample solutions (5 μL of each) was placed onto the grids. After 30 seconds, the sample solution was removed, and the grids were stained by uranyl acetate (2% v/v) and allowed to dry in air. TEM images were obtained with Morgagni 268 transmission electron microscope at the HV of 80 kV with filament of 2.

HepG2 cells = assay: CLSM rate of fluorescence increase at Golgi, HepG2; type: cell-based; settings: pS1 10 μM
Description: as §1

HCC1937 cells = assay: CLSM rate of fluorescence increase at Golgi, HCC1937; type: cell-based; settings: pS1 10 μM
Description: as §1

Golgi of HeLa cells [4] = assay: CLSM fluorescence imaging of Golgi accumulation in HeLa cells; settings: for Golgi fluorescence: 4 minutes
HEK293 cells = assay: CLSM rate of fluorescence increase at Golgi, HEK293; type: cell-based; settings: pS1 10 μM
Description: as §1

OVCAR4 cells = assay: CLSM rate of fluorescence increase at Golgi, OVCAR-4; type: cell-based; settings: pS1 10 μM
Description: as §1

HS-5 cells = assay: CLSM rate of fluorescence increase at Golgi, HS-5; type: cell-based; settings: pS1 10 μM
Description: as §1

Saos-2 cells = assay: CLSM rate of fluorescence increase at Golgi, Saos-2; type: cell-based; settings: pS1 10 μM
Description: as §1

MCF7 cells = assay: CLSM rate of fluorescence increase at Golgi, MCF-7; type: cell-based; settings: pS1 10 μM
Description: as §1

Golgi of HeLa cells [5] = assay: Staining of pS2-treated HeLa cells with tetracysteine probe FlAsH-EDT2; type: cell-based; settings: pS2 10 μM, 4 h; FlAsH-EDT2 1 μM, 1 h
Description: Staining cells with FlAsH-EDT 2: Briefly, after incubating HeLa cell lines (1.5×10^5) in 3.5 cm confocal dish for 24 h at 37° C. in a humidified atmosphere of 5% CO2, we discarded the medium and added fresh medium containing pS2 (10 μM) and incubated them together for 4 h. After 4 h, medium was removed followed by three-time wash by cell imaging buffer to eliminate FBS. Then, we added FlAsH-EDT2 solution (cell imaging buffer, 1 μM) into the confocal dish and incubated the HeLa cells at 37° C. for 1 h. Meanwhile, we prepared 1,2-Ethanedithiol (EDT) solution (cell imaging buffer, 250 μM) and after the one-hour incubation of HeLa cells with FlAsH-EDT2, FlAsH-EDT2 was discarded and EDT solution was added to the confocal dish to eliminate the unspecific binding of FlAsH-EDT2 for 10 min. Ten minutes later, EDT solution was removed and cells were washed with cell imaging buffer three times and the fluorescence images were taken by ZEISS LSM 880 confocal laser scanning microscope.

[6] = Cytotoxicity against HS-5 cells; type: cell-based; settings: human
Description: (§2) Cell Lines: All cell lines used (HeLa, Saos-2, SJSA-1, OVSAHO, HCC1937, HepG2, OVCAR-4, SKOV-3, MCF-7, HEK293, HS-5) were purchased from the American Type Culture Collection (ATCC, Manassas, VA, USA). HeLa, HepG2, MCF-7 and HEK293 cells were cultured in MEM medium with 10% FBS and 1% P/S (100 U mL^−1 penicillin and 100 μg mL^−1 streptomycin, Invitrogen Life Technologies). Saos-2, SKOV-3 cells were cultured in McCoy's 5A medium with 15% FBS and 1% P/S. HS-5 cells were cultured in DMEM medium with 10% FBS and 1% P/S. SJSA-1, OVSAHO, HCC1937, OVCAR-4 cells were cultured in RPMI-1640 medium with 10% FBS and 1% P/S. All the cells were cultured at 37° C. in a humidified atmosphere of 5% CO2. To determine the cytotoxicity of the compounds, cells were seeded in 96-well cell plate at 1.0×10^4 cells/well for 24 h followed by culture medium removal, and then fresh culture medium containing compounds were added. For fluorescence imaging, cells were seeded in confocal dish at 1.5×10^5 cells/dish for 24 h followed by the addition of fresh medium containing compounds, and then the fluorescence of cells were taken by ZEISS LSM 880 confocal laser scanning microscope with the 63× oil lens.

[7] = Cytotoxicity against HEK293 cells; type: cell-based; settings: human
Description: as §2

HeLa cells = assay: Cytotoxicity against HeLa cells; type: cell-based; settings: 24 h
Description: as §2

Molecule: NBD-(β-Ala-f-f-NH—(CH2)2-thiophosphate [pS1]
- critical micelle concentration (CMC) [1]: 6.0 µM
- fluorescence intensity increase at the Golgi (SJSA-1 cells): increase significantly
- fluorescence intensity increase at the Golgi (SKOV3 cells): much slowly
- fluorescence intensity increase at the Golgi (OVSAHO cells): increase significantly
- dephosphorylation by ALP (rate, in words) ([2]; pH 7.4): fast dephosphorylation
- assemblies seen by TEM [3]: micelles
- fluorescence intensity increase at the Golgi (HepG2 cells): slightly
- fluorescence intensity increase at the Golgi (HCC1937 cells): increase significantly
- time until distinctive fluorescence appears at the Golgi (Golgi of HeLa cells [4]; 500 nM): 15 min
- Golgi fluorescence (Golgi of HeLa cells [4]; 2 μM): much weaker fluorescence at the Golgi
- Golgi fluorescence (Golgi of HeLa cells [4]; 5 μM): green fluorescence clearly still presents at the Golgi, but little at the ER
- enhancement of fluorescence intensity at the Golgi from 1 minute to 8 minutes (Golgi of HeLa cells [4]; 10 μM): about 7 times
- onset of fluorescence after addition (Golgi of HeLa cells [4]; 10 μM, 0 min): appears almost instantly
- Golgi fluorescence (Golgi of HeLa cells [4]; 10 μM): bright green fluorescence presents in Golgi and weak fluorescence in ER
- colocalisation of fluorescence with CellLight Golgi-RFP (Golgi of HeLa cells [4]; 10 μM, 8 minutes): overlaps with the red fluorescence from all Golgi-RFP
- cell morphology in DIC image (Golgi of HeLa cells [4]; 10 μM, 20 min): well-spread HeLa cells
- concentration as low as which S1 accumulates at Golgi (Golgi of HeLa cells [4]; HeLa cells treated with pS1): 500 nM
- fluorescence at Golgi of pretreated cells in fresh culture medium (exocytosis) (Golgi of HeLa cells [4]; HeLa pretreated with pS1, fresh medium): drops only slightly over time
- rate of Golgi accumulation when protein disulfide isomerases (PDIs) are inhibited (Golgi of HeLa cells [4]; PDI inhibition): slight decrease of the rate of Golgi accumulation
- accumulation at Golgi after cytochalasin D (CytD) (Golgi of HeLa cells [4]; pS1 10 μM, CytD 0.5, 1.0 μg/mL, 30 min pretreatment): decreases the accumulation of S1 at Golgi in a concentration-dependent manner
- rate of fluorescence increase at Golgi after ALP inhibitor DQB (Golgi of HeLa cells [4]; pS1 10 μM, DQB 20 μM, 30 min pretreatment): reduce the rate of fluorescence increase at the Golgi
- accumulation at Golgi with N-ethylmaleimide (NEM) (Golgi of HeLa cells [4]; pS1 10 μM, NEM 5 mM, 16 min): almost completely eliminates the accumulation of S1 at Golgi
- rate of fluorescence increase at Golgi after phosphatase inhibitor cocktail set 3 (PIC) (Golgi of HeLa cells [4]; pS1 10 μM, PIC 4000×, 30 min pretreatment): reduce the rate of fluorescence increase at the Golgi
- rate of fluorescence increase at Golgi after phospholipase C (PLC) (Golgi of HeLa cells [4]; pS1 10 μM, PLC 0.2 U, 30 min pretreatment): slightly faster increase of fluorescence in the Golgi
- rate of fluorescence increase at Golgi after methyl-β-cyclodextrin (mβCD) (Golgi of HeLa cells [4]; pS1 10 μM, mβCD 5 mM, 30 min pretreatment): significantly decreases the rate of the fluorescence increase at the Golgi
- accumulation at Golgi with Golgi disruptor brefeldin A (BFA) (Golgi of HeLa cells [4]; with BFA): abolishes the accumulation
- fluorescence intensity increase at the Golgi (HEK293 cells): much slowly
- fluorescence intensity increase at the Golgi (OVCAR4 cells): slightly
- fluorescence intensity increase at the Golgi (HS-5 cells): much slowly
- fluorescence intensity increase at the Golgi (Saos-2 cells): increase significantly
- fluorescence intensity increase at the Golgi (MCF7 cells): much slowly

Molecule: O=C(Cc1ccc2ccccc2c1)N[C@H](Cc1ccccc1)C(=O)N[C@H](Cc1ccccc1)C(=O)NCCSP(=O)(O)O [pS2]
- critical micelle concentration (CMC) [1]: 9.5 µM
- FlAsH-EDT2 staining of treated cells (Golgi of HeLa cells [5]): fluorescent at the Golgi of the HeLa cells
- dephosphorylation by ALP (rate, in words) ([2]; 120 μM, ALP 0.1 U/mL, PBS pH 7.4, 37° C.): rapid dephosphorylation
- conversion to dephosphorylated product ([2]; ALP 0.1 U/mL, about 16 minutes): nearly fully converted
- IC50 at 24 h [6]: > 100 µM
- IC50 at 24 h [7]: > 100 µM
- selectivity against cancer cells (HeLa vs HEK293 and HS-5) (HeLa cells; compared with S2): more selective than S2
- IC50 (HeLa cells; HeLa cells): 2800 nM and ~3000 nM
- inhibitory activity against HeLa cells relative to pO2 (HeLa cells; HeLa cells): an order of magnitude higher than that of pO2
- rescue of HeLa cells by cell death inhibitors (Z-VAD-FMK, NAc, Nec-1, DFO, Fer-1, disulfiram) (HeLa cells; pS2 10 μM): unable to rescue

Molecule: NBD-(β-Ala-f-f-NH—(CH2)2-phosphate [pO1, reference compound]
- dephosphorylation by ALP (rate, in words) ([2]; pH 7.4): taking longer time for dephosphorylation than that of pS1
- fluorescence in cells (Golgi of HeLa cells [4]; 10 μM, 8 minutes): almost no fluorescence
- fluorescence in cells (Golgi of HeLa cells [4]; 100, 50, 20 μM, 4 hours): several scattered fluorescent puncta in cells
- cellular uptake and localisation (Golgi of HeLa cells [4]; HeLa cells): requires hours for cellular uptake and largely remains in endosomes
